Where a name gives a salt, the structure may show the parent alone. Read-outs that look alike come from different tables or passages of the source.
Key:
[1] = system: S. aureus, E. coli, P. aeruginosa, and S. sanguis; conditions: isolated from H. canadensis; cited from earlier work
[2] = system: Streptococcus mutans; assay: MIC microdilution assay; assay type: cell-based; conditions: for MIC: Streptococcus mutans
[3] = system: Fusobacterium nucleatum; assay: MIC microdilution assay; assay type: cell-based; conditions: for MIC: Fusobacterium nucleatum
[4] = system: Actinobacillus actinomycetemcomitans; assay: MIC microdilution assay; assay type: cell-based; conditions: for MIC: Aggregatibacter actinomycetemcomitans
[5] = system: Streptococcus gordonii; assay: MIC microdilution assay; assay type: cell-based; conditions: for MIC: Streptococcus gordonii
[6] = system: Porphymonas gingivalis; assay: MIC microdilution assay; assay type: cell-based; conditions: for MIC: Porphyromonas gingivalis
[7] = system: test bacteria; assay: MIC microdilution assay, statements on all test bacteria; assay type: cell-based; conditions: read-out: Concentration without growth inhibition of the test bacteria (MIC bound)
[8] = system: S. mutans; assay: Relative cell surface hydrophobicity (hexanes partition); assay type: cell-based; conditions: agent alone 5 μg ml^−1
[9] = system: oral pathogens; assay: Combination determination, statements on the oral pathogens; assay type: cell-based; conditions: berberine hydrochloride / berberine (B-CG and B-S)
Experimental: (§1) The alkaloids were tested in pair-wise combinations (fractional inhibitory concentrations, FIC) against all the bacteria to determine whether interactions were antagonistic (FIC>1), additive (0.5<FIC<1), or synergistic (FIC<0.5). The FIC was calculated by the following: (MIC Acombination/MIC Aalone)+(MIC Bcombination/MIC Balone). Where A represents compound 1 and B represents compound 2. […] In the case of A. actinomycetemcomitans and P. aeruginosa, CHX was used at 0.78 to 50 μg ml^−1. Berberine (B-CG and B-S) was used at concentrations 0.9 to 250 μg ml^−1. The antibacterial efficacy of berberine (1.95 to 500 μg ml^−1) was tested in combination against P. aeruginosa with CHX (0.78 to 50 μg ml^−1) (Sigma Chemicals) and the polymyxin antibiotic Col (0.04 to 25 μg ml^−1) (Sigma Chemicals). The plates were incubated for 24 hours.

[10] = system: P. gingivalis; assay: Relative cell surface hydrophobicity (hexanes partition); assay type: cell-based; conditions: agent alone 5 μg ml^−1
[11] = system: Actinobacillus actinomycetemcomitans; assay: Combination determination (FIC, MIC in combination); assay type: cell-based; conditions: A. actinomycetemcomitans grown under anaerobic conditions; berberine (B-CG) combined with CHX, Tet or Dox; MIC of the named agent in the combination
Experimental: as §1

[12] = system: Escherichia coli; assay: as above; assay type: cell-based; conditions: E. coli
Experimental: as §1

[13] = system: Staphylococcus aureus; assay: as above; assay type: cell-based; conditions: S. aureus; for Approximate amount of antibiotic required when combined with berberine relative to when the agent is used alone: fraction of the amount alone, HCl
Experimental: as §1

[14] = system: Streptococcus gordonii; assay: as above; assay type: cell-based; conditions: S. gordonii
Experimental: as §1

[15] = system: Porphymonas gingivalis; assay: as above; assay type: cell-based; conditions: P. gingivalis
Experimental: as §1

[16] = system: Fusobacterium nucleatum; assay: as above; assay type: cell-based; conditions: F. nucleatum
Experimental: as §1

[17] = system: S. gordonii; assay: Relative cell surface hydrophobicity (hexanes partition); assay type: cell-based; conditions: agent alone 5 μg ml^−1
[18] = system: test bacteria; assay: Relative cell surface hydrophobicity, statements on the test bacteria; assay type: cell-based; conditions: summary of Table 12
[19] = system: A. actinomycetemcomitans; assay: Relative cell surface hydrophobicity (hexanes partition); assay type: cell-based; conditions: agent alone 5 μg ml^−1
[20] = system: Staphylococcus aureus; assay: MIC microdilution assay; assay type: cell-based; conditions: S. aureus, agent alone, read-out: MIC of the antimicrobial agents alone
[21] = system: F. nucleatum; assay: Relative cell surface hydrophobicity (hexanes partition); assay type: cell-based; conditions: agent alone 5 μg ml^−1
[22] = system: Streptococcus mutans; assay: Combination determination (FIC, MIC in combination); assay type: cell-based; conditions: S. mutans
Experimental: as §1
CHX was diluted from left to right at 10 to 0.08 μg ml^−1 ([…] 1 to 8), berberine was diluted from top to bottom at 250 to 0.09 μg ml^−1 ([…] 1 to 8). Column 9 was the cell control, column 10 was berberine alone (250 to 0.09 μg ml^−1); and column 11 was CHX alone (10 to 0.08 μg ml^−1). Row H was the solvent control (8% DMSO, H1 to H8). Column 12 was the media blank. The dilution assay was designed such that A1 contained the highest concentration of both agents (berberine 250 μg ml^−1 and CHX 10 μg ml^−1). The final concentration of berberine in wells A2 to A8 was […]. The FIC value was calculated from well C6. FIC was calculated by: (MIC Acombination/MIC Aalone)+(MIC Bcombination/MIC Balone).

[23] = system: F. nucleatum; assay: Viability assessment (bactericidal activity); assay type: cell-based
Experimental: Two representative organisms, S. mutans and F. nucleatum, were used in this study. […] Aliquots of 4 ml of agent, prepared in sterile water, were placed into sterile test tubes and 1 ml of adjusted cells was added. The control consisted of 4 ml of PBS and 1 ml of cells. Samples were removed at 0, 15, 30, and 60 minutes, serial dilutions were performed, and the appropriate dilutions plated out. The plates were incubated at 37° C. under appropriate atmospheric conditions for up to 72 hours. Viable colony counts were determined and compared to nontreated control Percentage kill was calculated using the formula: ([…]×100. Log reduction was also calculated on Log10 transformed data. Effect of Berberine on Cell Surface Hydrophobicity

[24] = system: Escherichia coli; assay: MIC microdilution assay; assay type: cell-based; conditions: E. coli, agent alone, read-out: MIC of the antimicrobial agents alone
[25] = read-out: MIC of Goldenseal Alkaloids Against Selected Oral Pathogens
[26] = berberine (B-CG) combined with CHX, Tet or Dox, MIC of the named agent in the combination
[27] = berberine hydrochloride / chloride

COc1ccc(C[C@@H]2c3cc4c(cc3CCN2C)OCO4)c(C=O)c1OC [Canadaline, canadaline]
Antibacterial activity [1]: antimicrobial at comparable concentrations to berberine
MIC of Goldenseal Alkaloids Against Selected Oral Pathogens ([2]; Sm, S. mutans): >250 µg/mL
MIC of Goldenseal Alkaloids Against Selected Oral Pathogens ([3]; Fn, F. nucleatum): >250 µg/mL
MIC of Goldenseal Alkaloids Against Selected Oral Pathogens ([4]; Aa, A. actinomycetemcomitans): >250 µg/mL
MIC of Goldenseal Alkaloids Against Selected Oral Pathogens ([5]; Sg, S. gordonii): >250 µg/mL
MIC of Goldenseal Alkaloids Against Selected Oral Pathogens ([6]; Pg, P. gingivalis): >250 µg/mL

COc1ccc2c(c1OC)CN1CCc3cc4c(cc3[C@@H]1C2)OCO4 [Canadine, canadine]
Antibacterial activity [1]: antimicrobial at comparable concentrations to berberine
MIC [7]: > 250 µg/mL
MIC [2, 25]: > 500 µg/mL
MIC [3, 25]: > 500 µg/mL
MIC [4, 25]: > 500 µg/mL
MIC [5, 25]: > 500 µg/mL
MIC [6, 25]: > 500 µg/mL

C[C@H]1c2cccc(O)c2C(=O)C2=C(O)[C@]3(O)C(=O)C(C(N)=O)=C(O)[C@@H](N(C)C)[C@@H]3[C@@H](O)[C@@H]21 [Dox, doxycycline HCl]
Typical reduction scores on relative cell surface hydrophobicity [8]: 8.1%
Growth inhibition effect when combined with berberine [9]: synergistic
Typical reduction scores on relative cell surface hydrophobicity [10]: 1.7%
MIC of the antimicrobial agents in combination [11]: 6.25 µg/mL
MIC of the antimicrobial agents in combination [12, 26]: 0.77 µg/mL
Growth inhibition effect when combined with berberine [12, 27]: synergistic
Approximate amount of antibiotic required when combined with berberine relative to when the agent is used alone ([12]; fraction of the amount alone): ½
MIC of the antimicrobial agents in combination [13, 26]: 0.39 µg/mL
Growth inhibition effect when combined with berberine [13, 27]: synergistic
Approximate amount of antibiotic required when combined with berberine relative to when the agent is used alone ([13]; listed as Doxycycline (HCL)): ⅕
Approximate amount of antibiotic required when combined with berberine relative to when the agent is used alone ([13]; listed as Doxycycline-HCl): ½
MIC of the antimicrobial agents in combination [14, 26]: 0.08 µg/mL
Approximate amount of antibiotic required when combined with berberine relative to when the agent is used alone ([14]; fraction of the amount alone): <¼
MIC of the antimicrobial agents in combination [15, 26]: 0.01 µg/mL
Approximate amount of antibiotic required when combined with berberine relative to when the agent is used alone ([15]; fraction of the amount alone): ¼
MIC of the antimicrobial agents in combination [16, 26]: 0.10 µg/mL
Approximate amount of antibiotic required when combined with berberine relative to when the agent is used alone ([16]; fraction of the amount alone): ¼
Typical reduction scores on relative cell surface hydrophobicity [17]: 7.7%
MIC ([2]; S. mutans, agent alone, read-out: MIC of the antimicrobial agents alone): 0.78 µg/mL
Effect on the relative hydrophobicity of the cells [18]: did not appear to affect
MIC ([3]; F. nucleatum, agent alone, read-out: MIC of the antimicrobial agents alone): 0.04 µg/mL
MIC ([4]; A. actinomycetemcomitans grown under anaerobic conditions, agent alone, read-out: MIC of the antimicrobial agents alone): 6.25 µg/mL
Typical reduction scores on relative cell surface hydrophobicity [19]: −4.1%
MIC [20]: 1.53 µg/mL
Typical reduction scores on relative cell surface hydrophobicity [21]: −3.5%
MIC of the antimicrobial agents in combination [22, 26]: 0.20 µg/mL
Approximate amount of antibiotic required when combined with berberine relative to when the agent is used alone ([22]; fraction of the amount alone): ¼
Reduction of the concentration required for comparable reduction in viability when used in combination ([23]; Dox (5 μg ml^−1), berberine (250 μg ml^−1)): one-half
Viability after 60 min exposures (mean Log10 reduction of CFU) ([23]; Dox (10)): 1.56 Log10
MIC [24]: 1.53 µg/mL
MIC ([5]; S. gordonii, agent alone, read-out: MIC of the antimicrobial agents alone): 0.31 µg/mL
MIC ([6]; P. gingivalis, agent alone, read-out: MIC of the antimicrobial agents alone): 0.08 µg/mL

COc1ccc2c(c1OC)C(=O)O[C@@H]2[C@H]1c2cc3c(cc2CCN1C)OCO3 [Hydrastine, hydrastine]
MIC [7]: > 500 µg/mL
MIC [2, 25]: > 500 µg/mL
MIC [3, 25]: > 500 µg/mL
MIC [4, 25]: > 500 µg/mL
MIC [5, 25]: > 500 µg/mL
MIC [6, 25]: > 500 µg/mL

Reference: patent US20070098649A1, “Method and composition for controlling oral pathogens” (priority 2004, published 2007)
